Entries after “also recorded” stand apart in the source; their conditions may differ.

We go through two compounds from US10287585B2, “Therapy” (priority 2015, dated 2019).

Type in all cases: in vivo
Data set [1] has as its system E. coli CFT073. Briefly: Treatment of Irf3−/− mice after intravesical E. coli CFT073 infection: Irf7 siRNA compared with antibiotic therapy (Example 5). The settings on record: for number (frequency) of abscesses: siRNA intravenously and intravesically 24 hours and 4 days after infection, vs untreated. As for the experimental part:
Irf7 siRNA treatment was compared with antibiotic therapy. Groups of 6 Irf3^−/− mice were treated intravenously and intravesically with siRNA as described in Example 3, 24 hours and 4 days after intravesical infection with E. coli CFT073. The 24 hour time point corresponds to the time of acute symptoms, when patients are first diagnosed with febrile urinary tract infection (UTI) and treatment is initiated.
Also at that time, and following infection with E. coli CFT073, Irf3 mice were treated with the third-generation cephalosporin broad-spectrum antibiotic, Cefotaxime (STRAGEN Nordic A/S) at a dose of 100 or 400 mg/kg body weight. Cefotaxime was given by intraperitoneal injection twice a day for 6 days starting 24 hours after infection.
After 7 days, the mice were sacrificed, and kidney pathology and inflammation as quantified by neutrophil numbers in urine was assessed. Bacterial clearance was also assessed in SiRNA treated mice by measuring bacterial counts in urine. The results are shown in FIGS. 9A-E and 10A-D respectively.

Data set [2] has as its system E. coli CFT073. Put plainly: Irf7 siRNA therapy given before intravesical E. coli CFT073 infection of susceptible Irf3−/− mice (Example 3). As for the experimental part:
Anesthetized mice (Isofluoran) were infected by intravesical inoculation with E. coli CFT073 (10^8 CFU in 0.1 mL) as described (Hagberg et al., Infection and immunity (1983) 40, 273-283). Overnight static cultures of E. coli CFT073 in Luria broth were used for animal inoculations.
Animals were sacrificed after 7 days under anesthesia, kidneys were aseptically removed and macroscopic pathology was documented by photography. Tissues were divided for RNA extraction (on dry ice), histology and immunostaining (in O.C.T. compound, VWR) and frozen in separate vials at −80° C. Infection was assessed by viable counts of homogenized whole kidney (in 5 mL PBS). Urine samples were collected prior to and at regular times after infection and quantitatively cultured. Neutrophil numbers were quantified in uncentrifuged urine by use of a hemocytometer.
siRNA therapy was used to confirm the role of Irf7 in pathology. Irf3^−/− mice were subjected to siRNA treatment at a dose of 5 mg/kg. A dose (300 μL) of Silencer Select Pre-designed Irf7 siRNA (Life Technologies, 4404010 #s79411) was injected into the tail vein (200 μL) and intravesically (100 μL), three days prior to and on the day of infection with Invivofectamine reagent (Life Technologies, 1377501) (FIG. 5A). The siRNA used was as follows:
(§1) Ambion In Vivo Negative Control siRNA was given as a control (Life Technologies, 4457287). For transcriptomic analysis, total RNA was isolated from the kidney of Irf3^−/− mice using mirVana miRNA Isolation Kit (Ambion by Life Technologies) followed by organic extraction using Acid-Phenol:Chloroform. The analysis was done in-house using Mouse Genome 430 PM array strips and GeneAtlas system (Affymetrix).
After 7 days following infection, mice were sacrificed. The disease phenotype was defined by macroscopic kidney pathology, number of abscesses, bacterial counts in urine and kidneys, urine neutrophil numbers and tissue imaging (FIGS. 5B and 5D). Irf7 siRNA-treated mice were compared to infected controls receiving irrelevant siRNA with Invivofectamine® or no treatment.

The test system of data set [3] is IRF-7. Briefly: Immunohistochemistry of IRF-7 in renal pelvic mucosa of siRNA treated mice. As to conditions: Irf3−/− mice, 7 days after infection.
Data set [4] concerns STAT3. Briefly: Immunohistochemistry of submucosal STAT3 in kidneys of siRNA treated mice. The settings on record: Irf3−/− mice, 7 days after infection.
Data set [5] relates to pro-inflammatory genes and pathology network genes. Put plainly: Whole genome transcriptomic analysis of kidneys from Irf7 siRNA treated mice.
Source text: as §1

Where [6] appears, read: Cefotaxime 100 or 400 mg/kg intraperitoneal twice a day for 6 days starting 24 hours after infection, 7 days.
The mark [7] stands for this setting: Irf3−/− mice, siRNA 5 mg/kg three days prior to and on the day of infection, 7 days after infection.
[8] abbreviates: immunohistochemistry 7 days after infection, vs negative control siRNA treated or untreated Irf3−/− mice.
Setting [9] is: abscesses, 7 days after infection.
[10] abbreviates: siRNA 24 hours and 4 days after infection, 7 days.
Setting [11] is: kidneys of Irf7 siRNA treated Irf3−/− mice infected with CFT073 vs untreated controls.

Regarding `CO/N=C(\C(=O)N[C@@H]1C(=O)N2C(C(=O)O)=C(COC(C)=O)CS[C@H]12)c1csc(N)n1` [Cefotaxime, reference compound], in data set [1] (setting [6]), the frequency of abscesses result is “reduced” and the “neutrophil numbers in urine (inflammation)” value is recorded as “reduced”.
On to “Irf7 siRNA: Silencer Select Pre-designed Irf7 siRNA (Life Technologies, 4404010 #s79411); sense GUGUUUACGAGGAACCCUAtt, antisense UAGGGUUCCUCGUAAACACgg; delivered with Invivofectamine (sense GUGUUUACGAGGAACCCUATT; antisense UAGGGUUCCUCGUAAACACGG; chemistry not given here)”, for which, in data set [2] (Irf3−/− mice, siRNA 5 mg/kg tail vein + intravesically, three days prior to and on the day of infection, 7 days after infection, vs irrelevant siRNA or untreated), the “macroscopic kidney pathology and tissue damage” value is “Reduction”. Further, in data set [2] (setting [7]), the “bacterial counts in urine and renal tissue” value was “reduction; also recorded: lower”; the “neutrophil recruitment (neutrophil numbers in urine)” value was “reduction; also recorded: reduced”. Also, the frequency of abscesses entry in data set [2] (Irf3−/− mice, siRNA three days prior to and on the day of infection, 7 days after infection, n=3-8) is given as “reduced”. In data set [2] (setting [8]), the “bacterial staining, frozen kidney tissue sections” value is listed as “markedly reduced” and the “neutrophil staining, frozen kidney tissue sections” value is on record as “markedly reduced”. In data set [3], the “mucosal IRF-7 expression (staining) in renal pelvic mucosa” value was “Suppression; also recorded: Inhibition”. Further, the “mucosal IRF-7 expression (staining) in renal pelvic mucosa” value in data set [3] (listed as siRNA) is recorded as “Reduced”. In addition, in data set [1] (setting [9]), the “effect compared with 100 mg/kg of Cefotaxime” value is on record as “similar” and the “effect compared with 400 mg/kg of Cefotaxime” value is “lower”. For the same compound, in data set [1] (setting [10]), the “bacterial counts in urine (bacterial clearance)” value is “lower” and the “neutrophil numbers in urine (magnitude of the neutrophil infiltrate)” value is listed as “reduced”. In addition, the “neutrophil numbers in urine (magnitude of the neutrophil infiltrate)” value in data set [1] (siRNA 24 hours and 4 days after infection, 7 days, listed as SiRNA) is listed as “significantly reduced”. The “number (frequency) of abscesses” value in data set [1] (7 days after infection) is “reduced”. The “number (frequency) of abscesses” value in data set [1] (7 days after infection, listed as SiRNA) is listed as “significantly reduced”. In addition, in data set [4], the “submucosal STAT3 staining” value was “reduced; also recorded: inhibited”. Besides, in data set [5] (Irf7 siRNA treated mice, as stated in Example 5), the pathology-associated gene expression entry is given as “absence”. Further, in data set [5] (setting [11]), the Tlr4 expression result is on record as “activated”; the “expression of pro-inflammatory genes and transcriptional regulators (chemokines, Irf7, Stat3, Jun)” value is listed as “suppressed”. The “transcript levels overall and of pathology-associated genes (Stat3, S100a8, Cxcl2, Junb)” value in data set [5] (kidneys of siRNA treated Irf3−/− mice) is reported as “suppressed”.
